Tested on: Lewis rats
Experiment: Induction of experimental autoimmune anterior uveitis (EAAU) by hind footpad immunization with MAA-derived peptides in CFA
Type: in vivo, rat
Conditions: for severity of EAAU, clinical and histopathologic examination: 250 μg peptide in CFA compared with 75 μg bovine MAA in CFA, histology at day 17 and day 20 post-immunization; for induction of EAAU: single-dose hind footpad immunization, emulsified 1:1 in CFA, 250 μg peptide or 75 μg bovine MAA, examined daily day 7 to 30 post-immunization
Procedure: Peptides having the sequence of SEQ ID NO. 1 and SEQ ID NO. 2 were solubilized in sterile phosphate buffered saline (PBS) before use. Lewis rats were immunized separately with 100 μl of stable emulsion containing 250 μg of peptide SEQ ID NO. 1 (n=9 rats) or peptide SEQ ID NO. 2 (n=9 rats) emulsified (1:1) in complete Freund's adjuvant (CFA) using a single-dose induction protocol in the hind footpad to induce EAAU. Control animals (n=9 rats) received 75 μg of bovine melanin associated antigen (MAA) emulsified (1:1) in CFA. Animals in each group were examined daily between day 7 and 30, post-immunization, to determine the time of onset and progression of clinical disease in EAAU. Two animals from each group were sacrificed at day 17 and day 20 post-immunization and eyes were harvested for histological analysis to determine the severity of disease and degree of inflammation. Lewis rats injected with MAA peptide SEQ ID NO. 1 or MAA peptide SEQ ID NO. […] 1 (FIGS. 1A and 1D) and peptide SEQ ID NO. […] As shown in all of the Figs., the iris (I) and the ciliary body (CB) were infiltrated with inflammatory cells.

Sequence | severity of EAAU, clinical and histopathologic examination | induction of EAAU
HAGLAGARGAPGPDGNNGAQGPPGL (listed as Bos taurus) [SEQ ID NO. 2, truncated peptide derived from Melanin Associated Antigen (MAA)] | less severe than that induced by bovine MAA | developed EAAU
GEPGNIGFPGPKGPSGDPGKAGEKG (listed as Bos taurus) [SEQ ID NO. 1, truncated peptide derived from Melanin Associated Antigen (MAA)] | less severe than that induced by bovine MAA | developed EAAU

— patent US20130052214A1, “IDENTIFICATION OF A PEPTIDE(S) THAT INDUCES AUTOIMMUNE ANTERIOR UVEITIS” (BOARD OF TRUSTEES OF THE UNIVERSITY OF ARKANSAS, priority 2011, published 2013)
